Assay results from patent US20230085307A1, “PYRIDAZINONE COMPOUND AND HERBICIDE” (NISSAN CHEMICAL CORPORATION, priority 2019, published 2023).

Assays:
[1] = system: barnyard grass; assay: Test Example 3: herbicidal effect by foliage application, Wagner pot (Table 18, symbol H); format: in vivo, barnyard grass (Echinochloa crus-galli); settings: 320 g/ha
Outline: (§1)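 Plants were sown in alluvial soil held under 0.1–0.5 cm standing water and grown 14 days in a greenhouse at 25–30 °C. An emulsifiable formulation, water-diluted to the set dose, was then sprayed onto the foliage, and effects were scored three weeks later using previously defined criteria.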

[2] = system: Chinese sprangletop; assay: Test Example 3: herbicidal effect by foliage application, Wagner pot (Table 18, symbol D); format: in vivo, chinese sprangletop (Leptochloa chinensis); settings: 320 g/ha
Outline: as §1

[3] = system: rice flat sedge; assay: Test Example 3: herbicidal effect by foliage application, Wagner pot (Table 18, symbol E); format: in vivo, rice flat sedge (Cyperus iria); settings: 320 g/ha
Outline: as §1

[4] = system: southern crabgrass; assay: Test Example 4: herbicidal effect by soil treatment (Table 19, symbol F); format: in vivo, southern crabgrass (Digitaria ciliaris); settings: AAH 320 g/ha
Outline: (§2)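 Three weeks of greenhouse growth at 25° C. to 30° C. followed a uniform surface spray of water-diluted emulsion at a predetermined herbicide amount. Seeds had been sown beforehand under about 1.5 cm of sterilized diluvial soil. Grading followed criteria set out in an earlier test.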

[5] = system: green foxtail; assay: Test Example 4: herbicidal effect by soil treatment (Table 19, symbol G); format: in vivo, green foxtail (Setaria viridis); settings: AAH 320 g/ha
Outline: as §2

[6] = system: barnyard grass; assay: Test Example 4: herbicidal effect by soil treatment (Table 19, symbol H); format: in vivo, barnyard grass (Echinochloa crus-galli); settings: AAH 320 g/ha
Outline: as §2

[7] = system: wild oat; assay: Test Example 4: herbicidal effect by soil treatment (Table 19, symbol I); format: in vivo, wild oat (Avena fatua); settings: AAH 320 g/ha
Outline: as §2

[8] = system: blackgrass; assay: Test Example 4: herbicidal effect by soil treatment (Table 19, symbol J); format: in vivo, blackgrass (Alopecurus myosuroides); settings: AAH 320 g/ha
Outline: as §2

[9] = system: Italian ryegrass; assay: Test Example 4: herbicidal effect by soil treatment (Table 19, symbol K); format: in vivo, Italian ryegrass (Lolium multiflorum); settings: AAH 320 g/ha
Outline: as §2

[10] = system: windgrass; assay: Test Example 4: herbicidal effect by soil treatment (Table 19, symbol L); format: in vivo, windgrass (Apera spica-venti); settings: AAH 320 g/ha
Outline: as §2

[11] = system: velvetleaf; assay: Test Example 4: herbicidal effect by soil treatment (Table 19, symbol M); format: in vivo, velvetleaf (Abutilon theophrasti); settings: AAH 320 g/ha
Outline: as §2

[12] = system: lambsquarters; assay: Test Example 4: herbicidal effect by soil treatment (Table 19, symbol O); format: in vivo, lambsquarters (Chenopodium album); settings: AAH 320 g/ha
Outline: as §2

[13] = system: chickweed; assay: Test Example 4: herbicidal effect by soil treatment (Table 19, symbol P); format: in vivo, common chickweed (Stellaria media); settings: AAH 320 g/ha
Outline: as §2

[14] = system: false cleavers; assay: Test Example 4: herbicidal effect by soil treatment (Table 19, symbol Q); format: in vivo, false cleavers (Galium spurium); settings: AAH 320 g/ha
Outline: as §2

[15] = system: persian speedwell; assay: Test Example 4: herbicidal effect by soil treatment (Table 19, symbol R); format: in vivo, Persian speedwell (Veronica persica); settings: AAH 320 g/ha
Outline: as §2

[16] = system: southern crabgrass; assay: Test Example 5: herbicidal effect by foliage application, plastic box (Table 20, symbol F); format: in vivo, southern crabgrass (Digitaria ciliaris); settings: foliage application, AAH 320 g/ha, three weeks after application
Outline: (§3)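 Plants sown in sterilized diluvial soil and grown 14 days in a greenhouse at 25° C to 30° C, then sprayed on the foliage with the compound's emulsion diluted in water to a predetermined herbicide amount. Injury to weeds and crops scored three weeks after application on a visual rating scale.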

[17] = system: green foxtail; assay: Test Example 5: herbicidal effect by foliage application, plastic box (Table 20, symbol G); format: in vivo, green foxtail (Setaria viridis); settings: foliage application, AAH 320 g/ha, three weeks after application
Outline: as §3

[18] = system: barnyard grass; assay: Test Example 5: herbicidal effect by foliage application, plastic box (Table 20, symbol H); format: in vivo, barnyard grass (Echinochloa crus-galli); settings: foliage application, AAH 320 g/ha, three weeks after application
Outline: as §3

[19] = system: wild oat; assay: Test Example 5: herbicidal effect by foliage application, plastic box (Table 20, symbol I); format: in vivo, wild oat (Avena fatua); settings: foliage application, AAH 320 g/ha, three weeks after application
Outline: as §3

[20] = system: blackgrass; assay: Test Example 5: herbicidal effect by foliage application, plastic box (Table 20, symbol J); format: in vivo, blackgrass (Alopecurus myosuroides); settings: foliage application, AAH 320 g/ha, three weeks after application
Outline: as §3

[21] = system: Italian ryegrass; assay: Test Example 5: herbicidal effect by foliage application, plastic box (Table 20, symbol K); format: in vivo, Italian ryegrass (Lolium multiflorum); settings: foliage application, AAH 320 g/ha, three weeks after application
Outline: as §3

[22] = system: windgrass; assay: Test Example 5: herbicidal effect by foliage application, plastic box (Table 20, symbol L); format: in vivo, windgrass (Apera spica-venti); settings: foliage application, AAH 320 g/ha, three weeks after application
Outline: as §3

[23] = system: velvetleaf; assay: Test Example 5: herbicidal effect by foliage application, plastic box (Table 20, symbol M); format: in vivo, velvetleaf (Abutilon theophrasti); settings: foliage application, AAH 320 g/ha, three weeks after application
Outline: as §3

[24] = system: redroot pigweed; assay: Test Example 5: herbicidal effect by foliage application, plastic box (Table 20, symbol N); format: in vivo, redroot pigweed (Amaranthus retroflexus); settings: foliage application, AAH 320 g/ha, three weeks after application
Outline: as §3

[25] = system: lambsquarters; assay: Test Example 5: herbicidal effect by foliage application, plastic box (Table 20, symbol O); format: in vivo, lambsquarters (Chenopodium album); settings: foliage application, AAH 320 g/ha, three weeks after application
Outline: as §3

[26] = system: chickweed; assay: Test Example 5: herbicidal effect by foliage application, plastic box (Table 20, symbol P); format: in vivo, common chickweed (Stellaria media); settings: foliage application, AAH 320 g/ha, three weeks after application
Outline: as §3

[27] = system: persian speedwell; assay: Test Example 5: herbicidal effect by foliage application, plastic box (Table 20, symbol R); format: in vivo, Persian speedwell (Veronica persica); settings: foliage application, AAH 320 g/ha, three weeks after application
Outline: as §3

## CCCC(=O)Oc1c(OC)nn(C)c(=O)c1-c1c(-c2ccc(F)c(F)c2)sc2ccccc12 [1-173]
[1]
  herbicidal effect on H (barnyard grass), rating 0-5: 1 (Herbicidal rate of 5% or more and less than 20%)
[2]
  herbicidal effect on D (Chinese sprangletop), rating 0-5: 0 (Herbicidal rate of 5% or less (almost no effect))
[3]
  herbicidal effect on E (rice flat sedge), rating 0-5: 5 (Herbicidal rate of 90% or more (almost completely withered))
[4]
  F: southern crabgrass, herbicidal effect rating: 0 (Herbicidal rate of 5% or less (almost no effect))
[5]
  G: green foxtail, herbicidal effect rating: 5 (Herbicidal rate of 90% or more (almost completely withered))
[6]
  H: barnyard grass, herbicidal effect rating: 0 (Herbicidal rate of 5% or less (almost no effect))
[7]
  I: wild oat, herbicidal effect rating: 0 (Herbicidal rate of 5% or less (almost no effect))
[8]
  J: blackgrass, herbicidal effect rating: 0 (Herbicidal rate of 5% or less (almost no effect))
[9]
  K: Italian ryegrass, herbicidal effect rating: 2 (Herbicidal rate of 20% or more and less than 40%)
[10]
  L: windgrass, herbicidal effect rating: 0 (Herbicidal rate of 5% or less (almost no effect))
[11]
  M: velvetleaf, herbicidal effect rating: 4 (Herbicidal rate of 70% or more and less than 90%)
[12]
  O: lambsquarters, herbicidal effect rating: 5 (Herbicidal rate of 90% or more (almost completely withered))
[13]
  P: chickweed, herbicidal effect rating: 5 (Herbicidal rate of 90% or more (almost completely withered))
[14]
  Q: false cleavers, herbicidal effect rating: 3 (Herbicidal rate of 40% or more and less than 70%)
[15]
  R: persian speedwell, herbicidal effect rating: 5 (Herbicidal rate of 90% or more (almost completely withered))
[16]
  F: southern crabgrass, herbicidal effect: 0 (Herbicidal rate of 5% or less (almost no effect))
[17]
  G: green foxtail, herbicidal effect: 3 (Herbicidal rate of 40% or more and less than 70%)
[18]
  H: barnyard grass, herbicidal effect: 0 (Herbicidal rate of 5% or less (almost no effect))
[19]
  I: wild oat, herbicidal effect: 1 (Herbicidal rate of 5% or more and less than 20%)
[20]
  J: blackgrass, herbicidal effect: 1 (Herbicidal rate of 5% or more and less than 20%)
[21]
  K: Italian ryegrass, herbicidal effect: 4 (Herbicidal rate of 70% or more and less than 90%)
[22]
  L: windgrass, herbicidal effect: 0 (Herbicidal rate of 5% or less (almost no effect))
[23]
  M: velvetleaf, herbicidal effect: 5 (Herbicidal rate of 90% or more (almost completely withered))
[24]
  N: redroot pigweed, herbicidal effect: 5 (Herbicidal rate of 90% or more (almost completely withered))
[25]
  O: lambsquarters, herbicidal effect: 5 (Herbicidal rate of 90% or more (almost completely withered))
[26]
  P: chickweed, herbicidal effect: 5 (Herbicidal rate of 90% or more (almost completely withered))
[27]
  R: persian speedwell, herbicidal effect: 5 (Herbicidal rate of 90% or more (almost completely withered))
